Laboratory results as given in ChEMBL document CHEMBL1135312, “N-Aroyl-L-phenylalanine derivatives as VCAM/VLA-4 antagonists” (Bioorg Med Chem Lett, 2002).

How the values were obtained:
Integrin alpha-4/beta-1 [1] = biological target: T1, Integrin alpha-4/beta-1 (Homo sapiens, UniProt P05556+P13612); assay: Inhibitory binding concentration against VCAM/VLA-4 in ELISA.; type: protein-complex assay
Integrin alpha-4/beta-1 [2] = biological target: T1, Integrin alpha-4/beta-1; assay: Inhibitory binding concentration against VCAM/VLA-4 in Ramos.; type: protein-complex assay

T1 sequence (P05556 whole entry): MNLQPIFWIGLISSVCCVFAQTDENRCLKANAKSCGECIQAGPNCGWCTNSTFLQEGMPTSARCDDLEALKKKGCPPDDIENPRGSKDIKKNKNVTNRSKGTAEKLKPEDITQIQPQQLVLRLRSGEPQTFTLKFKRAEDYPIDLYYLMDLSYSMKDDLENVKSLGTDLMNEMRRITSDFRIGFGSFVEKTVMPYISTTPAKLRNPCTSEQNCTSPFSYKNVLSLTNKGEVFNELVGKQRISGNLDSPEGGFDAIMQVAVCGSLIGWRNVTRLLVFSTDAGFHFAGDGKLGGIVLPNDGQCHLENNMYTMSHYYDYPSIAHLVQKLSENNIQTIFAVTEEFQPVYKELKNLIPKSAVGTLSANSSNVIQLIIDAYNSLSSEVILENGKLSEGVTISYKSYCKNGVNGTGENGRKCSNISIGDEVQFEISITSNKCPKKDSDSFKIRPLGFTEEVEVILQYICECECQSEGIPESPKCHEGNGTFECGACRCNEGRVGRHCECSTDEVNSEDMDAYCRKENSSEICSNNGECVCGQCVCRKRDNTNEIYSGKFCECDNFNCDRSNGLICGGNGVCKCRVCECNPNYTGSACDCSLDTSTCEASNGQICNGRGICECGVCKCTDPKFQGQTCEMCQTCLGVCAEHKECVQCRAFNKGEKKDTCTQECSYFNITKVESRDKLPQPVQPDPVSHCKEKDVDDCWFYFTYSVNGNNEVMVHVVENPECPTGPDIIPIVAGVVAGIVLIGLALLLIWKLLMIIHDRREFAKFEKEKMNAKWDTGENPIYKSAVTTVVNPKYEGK
T1 sequence (P13612 whole entry): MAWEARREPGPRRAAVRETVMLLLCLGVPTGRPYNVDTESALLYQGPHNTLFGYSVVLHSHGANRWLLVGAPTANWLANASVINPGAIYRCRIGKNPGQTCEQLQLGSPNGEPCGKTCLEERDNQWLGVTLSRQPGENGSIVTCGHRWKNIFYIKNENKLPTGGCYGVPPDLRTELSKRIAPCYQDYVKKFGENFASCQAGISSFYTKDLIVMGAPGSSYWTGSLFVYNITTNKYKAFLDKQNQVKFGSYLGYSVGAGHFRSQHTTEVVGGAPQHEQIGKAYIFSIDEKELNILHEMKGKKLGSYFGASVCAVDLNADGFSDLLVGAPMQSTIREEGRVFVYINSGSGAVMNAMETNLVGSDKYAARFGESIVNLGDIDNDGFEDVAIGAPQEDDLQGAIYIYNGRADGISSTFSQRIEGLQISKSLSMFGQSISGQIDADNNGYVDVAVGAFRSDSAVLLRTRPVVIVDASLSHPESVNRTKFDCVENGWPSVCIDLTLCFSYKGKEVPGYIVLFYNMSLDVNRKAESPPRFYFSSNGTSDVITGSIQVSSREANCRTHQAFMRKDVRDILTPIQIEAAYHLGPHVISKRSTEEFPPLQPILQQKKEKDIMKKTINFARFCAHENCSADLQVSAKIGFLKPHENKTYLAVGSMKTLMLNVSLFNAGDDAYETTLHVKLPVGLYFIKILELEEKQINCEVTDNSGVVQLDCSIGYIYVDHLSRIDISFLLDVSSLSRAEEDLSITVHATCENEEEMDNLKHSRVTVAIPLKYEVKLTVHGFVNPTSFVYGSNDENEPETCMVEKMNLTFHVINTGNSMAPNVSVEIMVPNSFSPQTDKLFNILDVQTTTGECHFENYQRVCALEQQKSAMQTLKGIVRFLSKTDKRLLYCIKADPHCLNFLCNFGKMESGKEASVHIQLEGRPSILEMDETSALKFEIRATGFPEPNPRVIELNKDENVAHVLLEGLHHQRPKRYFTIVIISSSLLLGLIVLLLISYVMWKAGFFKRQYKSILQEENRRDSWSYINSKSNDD

`CCc1cccc(C)c1C(=O)N[C@@H](Cc1ccc(NC(=O)c2c(Cl)cccc2Cl)cc1)C(=O)O` showed an IC50 (Integrin alpha-4/beta-1 [1]) of 0.3 nM.
`COc1ccccc1C(=O)N[C@@H](Cc1ccc(NC(=O)c2c(Cl)cccc2Cl)cc1)C(=O)O` was tested, and the IC50 (Integrin alpha-4/beta-1 [2]) was 6800 nM.
`O=C(N[C@@H](Cc1ccc(NC(=O)c2c(Cl)cccc2Cl)cc1)C(=O)O)c1ccccc1Br` was tested, and the IC50 (Integrin alpha-4/beta-1 [2]) was 45 nM and the IC50 (Integrin alpha-4/beta-1 [1]) was 0.49 nM.
`CCCc1cccc(C)c1C(=O)N[C@@H](Cc1ccc(NC(=O)c2c(Cl)cccc2Cl)cc1)C(=O)O` showed an IC50 (Integrin alpha-4/beta-1 [2]) of 17 nM and an IC50 (Integrin alpha-4/beta-1 [1]) of 0.42 nM.
With `COc1ccc(C(=O)N[C@@H](Cc2ccc(NC(=O)c3c(Cl)cccc3Cl)cc2)C(=O)O)c(Cl)c1` the IC50 (Integrin alpha-4/beta-1 [1]) was 1.9 nM.
Molecule `O=C(Nc1ccc(C[C@H](NC(=O)c2c(F)cccc2C(F)(F)F)C(=O)O)cc1)c1c(Cl)cccc1Cl` has an IC50 (Integrin alpha-4/beta-1 [1]) of 0.4 nM.
Molecule `Cc1cccc(F)c1C(=O)N[C@@H](Cc1ccc(NC(=O)c2c(Cl)cccc2Cl)cc1)C(=O)O` has an IC50 (Integrin alpha-4/beta-1 [2]) of 85 nM and an IC50 (Integrin alpha-4/beta-1 [1]) of 0.44 nM.
Work on `Cc1nc(C(C)C)sc1C(=O)N[C@@H](Cc1ccc(NC(=O)c2c(Cl)cccc2Cl)cc1)C(=O)O` yielded an IC50 (Integrin alpha-4/beta-1 [2]) of 69 nM and an IC50 (Integrin alpha-4/beta-1 [1]) of 0.56 nM.
Molecule `O=C(N[C@@H](Cc1ccc(NC(=O)c2c(Cl)cccc2Cl)cc1)C(=O)O)c1sccc1Br` has an IC50 (Integrin alpha-4/beta-1 [2]) of 890 nM and an IC50 (Integrin alpha-4/beta-1 [1]) of 1.5 nM.
`Cc1cccc(C(=O)N[C@@H](Cc2ccc(NC(=O)c3c(Cl)cccc3Cl)cc2)C(=O)O)c1Cl` gave an IC50 (Integrin alpha-4/beta-1 [2]) of 1300 nM.
Work on `Cc1ccnc(C)c1C(=O)N[C@@H](Cc1ccc(NC(=O)c2c(Cl)cccc2Cl)cc1)C(=O)O` yielded an IC50 (Integrin alpha-4/beta-1 [2]) of 23 nM and an IC50 (Integrin alpha-4/beta-1 [1]) of 0.89 nM.
`CS(=O)(=O)c1ccccc1C(=O)N[C@@H](Cc1ccc(NC(=O)c2c(Cl)cccc2Cl)cc1)C(=O)O` showed an IC50 (Integrin alpha-4/beta-1 [2]) of 160 nM.
With `O=C(N[C@@H](Cc1ccc(NC(=O)c2c(Cl)cccc2Cl)cc1)C(=O)O)c1cc(C(F)(F)F)ccc1Cl` the IC50 (Integrin alpha-4/beta-1 [2]) was 450 nM and the IC50 (Integrin alpha-4/beta-1 [1]) was 8.8 nM.
In the case of `O=C(N[C@@H](Cc1ccc(NC(=O)c2c(Cl)cccc2Cl)cc1)C(=O)O)c1ccccc1C(F)(F)F`, the IC50 (Integrin alpha-4/beta-1 [2]) is reported as 650 nM and the IC50 (Integrin alpha-4/beta-1 [1]) is reported as 16 nM.
`Cc1nn(-c2ccccc2)nc1C(=O)N[C@@H](Cc1ccc(NC(=O)c2c(Cl)cccc2Cl)cc1)C(=O)O` gave an IC50 (Integrin alpha-4/beta-1 [2]) of 1440 nM and an IC50 (Integrin alpha-4/beta-1 [1]) of 25 nM.
In the case of `CNc1ccccc1C(=O)N[C@@H](Cc1ccc(NC(=O)c2c(Cl)cccc2Cl)cc1)C(=O)O`, the IC50 (Integrin alpha-4/beta-1 [2]) is reported as 1000 nM.
For `CC(=O)c1cccc(Cl)c1C(=O)N[C@@H](Cc1ccc(NC(=O)c2c(Cl)cccc2Cl)cc1)C(=O)O`, the IC50 (Integrin alpha-4/beta-1 [2]) was 49 nM and the IC50 (Integrin alpha-4/beta-1 [1]) was 1.6 nM.
`O=C(N[C@@H](Cc1ccc(NC(=O)c2c(Cl)cccc2Cl)cc1)C(=O)O)c1cccc(Cl)c1Cl` showed an IC50 (Integrin alpha-4/beta-1 [2]) of 1600 nM.
For `O=C(N[C@@H](Cc1ccc(NC(=O)c2c(Cl)cccc2Cl)cc1)C(=O)O)c1c(F)cccc1F`, the IC50 (Integrin alpha-4/beta-1 [2]) was 67 nM and the IC50 (Integrin alpha-4/beta-1 [1]) was 1.2 nM.
Molecule `CC(C)c1cccc(C(C)C)c1C(=O)N[C@@H](Cc1ccc(NC(=O)c2c(Cl)cccc2Cl)cc1)C(=O)O` has an IC50 (Integrin alpha-4/beta-1 [2]) of 460 nM.
With `Cc1cc(C(F)(F)F)c(C(=O)N[C@@H](Cc2ccc(NC(=O)c3c(Cl)cccc3Cl)cc2)C(=O)O)c(C)n1` the IC50 (Integrin alpha-4/beta-1 [2]) was 200 nM.
Molecule `Cc1cccc(C)c1C(=O)N[C@@H](Cc1ccc(NC(=O)c2c(Cl)cccc2Cl)cc1)C(=O)O` has an IC50 (Integrin alpha-4/beta-1 [2]) of 84 nM and an IC50 (Integrin alpha-4/beta-1 [1]) of 1.3 nM.
`Cc1ccc(Cl)c(C(=O)N[C@@H](Cc2ccc(NC(=O)c3c(Cl)cccc3Cl)cc2)C(=O)O)c1` was tested, and the IC50 (Integrin alpha-4/beta-1 [2]) was 460 nM and the IC50 (Integrin alpha-4/beta-1 [1]) was 11 nM.
In the case of `CSc1ccccc1C(=O)N[C@@H](Cc1ccc(NC(=O)c2c(Cl)cccc2Cl)cc1)C(=O)O`, the IC50 (Integrin alpha-4/beta-1 [2]) is reported as 100 nM and the IC50 (Integrin alpha-4/beta-1 [1]) is reported as 0.4 nM.
In the case of `COc1ccc(Br)c(C(=O)N[C@@H](Cc2ccc(NC(=O)c3c(Cl)cccc3Cl)cc2)C(=O)O)c1`, the IC50 (Integrin alpha-4/beta-1 [2]) is reported as 19 nM.
`O=C(N[C@@H](Cc1ccc(NC(=O)c2c(Cl)cccc2Cl)cc1)C(=O)O)c1cncnc1C(F)(F)F` was tested, and the IC50 (Integrin alpha-4/beta-1 [2]) was 190 nM and the IC50 (Integrin alpha-4/beta-1 [1]) was 2 nM.
With `O=C(N[C@@H](Cc1ccc(NC(=O)c2c(Cl)cccc2Cl)cc1)C(=O)O)c1ccc(Br)cc1Cl` the IC50 (Integrin alpha-4/beta-1 [2]) was 1300 nM.
Molecule `CC(C)(C)c1ccccc1C(=O)N[C@@H](Cc1ccc(NC(=O)c2c(Cl)cccc2Cl)cc1)C(=O)O` has an IC50 (Integrin alpha-4/beta-1 [2]) of 74 nM and an IC50 (Integrin alpha-4/beta-1 [1]) of 1.9 nM.
`Cc1cccc(Cl)c1C(=O)N[C@@H](Cc1ccc(NC(=O)c2c(Cl)cccc2Cl)cc1)C(=O)O` was tested, and the IC50 (Integrin alpha-4/beta-1 [2]) was 12 nM and the IC50 (Integrin alpha-4/beta-1 [1]) was 0.3 nM.
Work on `Cc1noc(C)c1C(=O)N[C@@H](Cc1ccc(NC(=O)c2c(Cl)cccc2Cl)cc1)C(=O)O` yielded an IC50 (Integrin alpha-4/beta-1 [2]) of 580 nM and an IC50 (Integrin alpha-4/beta-1 [1]) of 15 nM.
Molecule `Cc1ncccc1C(=O)N[C@@H](Cc1ccc(NC(=O)c2c(Cl)cccc2Cl)cc1)C(=O)O` has an IC50 (Integrin alpha-4/beta-1 [2]) of 180 nM and an IC50 (Integrin alpha-4/beta-1 [1]) of 2 nM.
